Patent US5444077A, “Ameliorant of cerebral circulation and optical isomer of NB-818, processes for its use” (Banyu Pharmaceutical Co., Ltd., priority 1987, dated 1995)

What was measured:
[1] = test system: vertebral artery; test: Effect to increase the blood flow of the vertebral artery in anesthetized beagle dogs (Pharmacological Test Example 1); format: in vivo, beagle dog
Description: (§1) Effect to increase the blood flow of the vertebral artery
(§2) A male or female beagle dog having a body weight of about 10 kg was anesthetized by subcutaneous administration of 35 mg/kg of sodium pentobarbital, and the level of anesthesia was maintained by continuous injection of from 4 to 6 mg/kg/hr of sodium pentobarbital.
(§3) The test was conducted by maintaining the blood gases under optimum conditions under artificial respiration. A drug was dissolved in a 0.9 wt % saline containing 10% by weight of polyethylene glycol and 10% by weight of ethanol, and a predetermined amount of the solution was intravenously or intraduodenally injected to the beagle dog. Then, the blood flow, the blood pressure and the heart rate were measured.
The blood flow was measured by an electromagnetic flow meter by means of blood flow probes attached to the vertebral artery and the femoral artery of the beagle dog. The blood pressure was measured by a pressure transducer connected to a canule inserted to the left femoral artery of the beagle dog.

[2] = test system: vertebral artery; test: Effect of optical isomers to increase the blood flow of the vertebral artery in anesthetized beagle dogs (Pharmacological Test Example 6); format: in vivo, beagle dog; details: intravenous
Description: as §1, §2
as §3, with “intravenously” for “intravenously or intraduodenally”
The blood flow was measured by an electromagnetic flow meter by means of blood flow probes attached to the vertebral artery and the femoral artery of the beagle dog. The blood pressure was measured by a pressure transducer connected to a canule inserted to the left femoral artery of the beagle dog. Further, the heart rate was measured by a heart rate counter based on the pulse wave of blood pressure.
The levo-rotatory optical isomer of 2-carbamoyloxymethyl-4-(2,3-dichlorophenyl)-6-methyl-1,4-dihydropyridine-3,5-dicarboxylic acid 3-isopropyl ester 5-methyl ester will be hereinafter referred to simply as (-)-NB-818, and the dextro-rotatory optical isomer thereof will be referred to simply as (+)-NB-818.

[3] = test system: vertebral artery; test: as above; format: in vivo, beagle dog
[4] = test system: cerebral isochemia models of Mongolian gerbils; test: Effect to prolong the life in the cerebral ischemia models of Mongolian gerbils (Pharmacological Test Example 4); format: in vivo, Mongolian gerbil; details: 0.01 mg/kg, intraperitoneal; control 100
Description: Effect to prolong the life in the cerebral isochemia models of Mongolian gerbils
A male Mongolian gerbil having a body weight of about 70 g was anesthetized by intraperitoneal administration of 70 mg/kg of ketamine hydrochloride. Then, left and right common carotid arteries were exposed and closed by scorbil clips for 20 minutes. Then, the clips were removed to regain the blood flow. Thirty minutes later, a drug dissolved in a 0.9 wt % saline containing 10% by weight of polyethylene glycol 300 and 10% by weight of ethanol, was intraperitoneally administered. The effect to prolong the life was determined by observing mortality and the neurotic symptom during 8 hours or 24 hours from the administration of the drug.

[5] = test system: cerebral regional blood flow; test: Effect to increase the cerebral regional blood flow in rabbits (Pharmacological Test Example 2); format: in vivo, rabbit; details: 0.01 mg/kg, intravenous
Description: A male rabbit having a body weight of about 3 kg was immobilized by intravenous injection of gallamine (2-3 mg/kg) and secured to an apparatus for fixing the brain position. Then, platinum electrodes for measuring hydrogen gas clearance were inserted to the top of cerebral cortex, to the center of the cerebellum and to the femoral muscle, and the blood flows were measured. The drug was dissolved in a 0.9 wt % saline containing 10% by weight of polyethylene glycol and 10% by weight of ethanol, and the solution was intravenously injected.

[6] = test system: amnesia induced by ECS; test: Effect against amnesia induced by ECS, passive avoidance, pretreatment with drug administration (Pharmacological Test Example 5); format: in vivo, rat; details: 3 mg/kg p.o.; for Latent reaction time, acquisition test: control 8.6 ± 1.3; for Latent reaction time, 2 hours later: control 49.2 ± 8.1; for Latent reaction time, 2 hours later / Latent reaction time, 24 hours later: * P < 0.05 vs control; for Latent reaction time, 24 hours later: control 85.6 ± 22.0
Excerpt: (§4) By using male rats having a body weight of about 200 g, the antiamnesic effect was examined on the basis of one trial passive avoidance reaction as an index. Namely, a rat is put in a light chamber of an operant box comprising the light chamber and a dark chamber, and when the rat entered into the dark chamber, an electric stimulation (5 mA for 10 seconds) was applied from the floor and immediately an electric shock (30 mA, 0.75 second) (hereinafter referred to simply as ECS) was applied to the head of the rat. Two hours or 24 hours after the ECS, the rat was put in the light chamber, and the time until the rat entered from the light chamber to the dark chamber (the latent reaction time) was measured,
The drug was suspended in a 0.5 wt % methyl cellulose and orally administered three times at intervals of 24 hours so that the final administration was conducted one hour prior to ECS.

[7] = test system: cerebral regional blood flow; test: Effect to increase the cerebral regional blood flow in monkeys (Pharmacological Test Example 3); format: in vivo, Rhesus monkey; details: 0.01 mg/kg, intravenous
Description: Effect to increase the cerebral regional blood flow in monkeys
A male Rhesus monkey having a body weight of from 5.0 to 11.0 kg was anesthetized with ketamine hydrochloride (1 mg/kg by intravenous injection) and sodium pentobarbital (30 mg/kg by intraperitoneal injection), and an endotracheal tube was inserted for artificial respiration. Then, the animal's head was fixed to a stereotaxic apparatus. The cerebral blood flow was calculated from the hydrogen gas clearance curve measured by means of needle type electrodes for hydrogen gas clearance inserted to the cerebral cortex after incising the head and boring a hole in the occipital lobe.
The drug was dissolved in a 0.9 wt % saline containing 10% by weight of polyethylene glycol 300 and 10% by weight of ethanol, and the solution was intravenously administered.

[8] = test system: amnesia induced by ECS; test: Effect against amnesia induced by ECS, passive avoidance, post-treatment with drug administration (Pharmacological Test Example 5); format: in vivo, rat; details: 1 mg/kg p.o.
Excerpt: as §4
In a separate test, the drug was orally administered at the same time as ECS, and the latent reaction time was measured two hours later, or NB-818 was again administered 22 hours later and then the latent reaction time was measured two hours later.

[9] = Acute toxicity (LD50) upon oral administration to rats; details: rat, in vivo
Excerpt: Thus, it is particularly advantageous for the treatment and prevention of the above diseases, for which continuous administration for a long period of time is obliged. Thus, its value as a pharmaceutical is very high.

## COC(=O)C1=C(C)NC(COC(N)=O)=C(C(=O)OC)C1c1cccc(Cl)c1Cl (stereo not shown) [Compound A, 2-Carbamoyloxymethyl-4-(2,3-dichlorophenyl)-6-methyl-1,4-dihydropyridine-3,5-dicarboxylic acid 3,5-dimethyl ester]
[1]; 0.01 mg/kg iv
  Change in blood pressure: -13%
  Change in femoral artery blood flow: +14%
  Change in vertebral artery blood flow: +76%
  Effective period (Half-life period): 9 min

## CCCOC(=O)C1=C(COC(N)=O)NC(C)=C(C(=O)OC)C1c1cccc(Cl)c1Cl (stereo not shown) [Compound C, 2-Carbamoyloxymethyl-4-(2,3-dichlorophenyl)-6-methyl-1,4-dihydropyridine-3,5-dicarboxylic acid 3-propyl ester 5-methyl ester]
[1]; 0.01 mg/kg iv
  Change in blood pressure: -15%
  Change in femoral artery blood flow: +20%
  Change in vertebral artery blood flow: +95%
  Effective period (Half-life period): 42 min

## CCOC(=O)C1=C(COC(N)=O)NC(C)=C(C(=O)OC)C1c1cccc(Cl)c1Cl (stereo not shown) [Compound B, 2-Carbamoyloxymethyl-4-(2,3-dichlorophenyl)-6-methyl-1,4-dihydropyridine-3,5-dicarboxylic acid 3-ethyl ester 5-methyl ester]
[1]; 0.01 mg/kg iv
  Change in blood pressure: -14%
  Change in femoral artery blood flow: +16%
  Change in vertebral artery blood flow: +50%
  Effective period (Half-life period): 36 min

## COC(=O)C1=C(C)NC(COC(N)=O)=C(C(=O)OC(C)C)C1c1cccc(Cl)c1Cl (single isomer, unassigned; (-)) [(-)-NB-818, levo-rotatory optical isomer of 2-carbamoyloxymethyl-4-(2,3-dichlorophenyl)-6-methyl-1,4-dihydropyridine-3,5-dicarboxylic acid 3-isopropyl ester 5-methyl ester]
[2]; 0.01 mg/kg
  Change in femoral artery blood flow: +3.3%
  Change in heart rate: +3.4%
  Change in vertebral artery blood flow: +123.2%
  Effective period (Half-life period): 44 min
[3]; 0.01 mg/kg, intravenous
  Change in blood pressure: -26.6%

## COC(=O)C1=C(C)NC(COC(N)=O)=C(C(=O)OC(C)C)C1c1cccc(Cl)c1Cl (single isomer, unassigned; (+)) [(+)-NB-818]
[2]; 0.1 mg/kg
  Change in femoral artery blood flow: +18.8%
  Change in heart rate: +3.8%
[3]; 0.1 mg/kg, intravenous
  Change in blood pressure: -8.1%
  Change in vertebral artery blood flow: +56.8%
  Effective period (Half-life period): 15.5 min

## COCCOC(=O)C1=C(C)NC(C)=C(C(=O)OC(C)C)C1c1cccc([N+](=O)[O-])c1 (stereo not shown) [Nimodipine, nimodipine]
[3]; 0.3 mg/kg, intraduodenal
  Change in blood pressure: -29%
  Change in femoral artery blood flow: +75%
  Change in heart rate: -23%
  Change in vertebral artery blood flow: +102%
  Effective period (Half-life period): 150 min
[4]
  Mortality, 0-8 hours: 83.3%
  Mortality, 0-24 hours: 91.7%
[1]; 0.3 mg/kg id (intraduodenal)
  Change in blood pressure: -29%
  Change in femoral artery blood flow: +75%
  Change in vertebral artery blood flow: +102%
  Effective period (Half-life period): 150 min
[5]
  Blood flow change, cerebellum blood flow: +55%
  Blood flow change, cerebral blood flow: +68%
  Blood flow change, femoral muscle blood flow: -5%
  Effective period (Half-life period): 20.6 min
[6]
  Latent reaction time, acquisition test: 9.6 ± 1.3 s
  Latent reaction time, 2 hours later: 103.9 ± 22.2 s
  Latent reaction time, 24 hours later: 132.1 ± 25.5 s

## COC(=O)C1=C(C)NC(C)=C(C(=O)OCCN(C)Cc2ccccc2)C1c1cccc([N+](=O)[O-])c1 (stereo not shown) [Nicardipine, nicardipine]
[4]
  Mortality, 0-8 hours: 83.3%
  Mortality, 0-24 hours: 91.7%
[7]
  Change in blood pressure: -24%
  Change in cerebral cortex blood flow: +16%
  Change in heart rate: +18%
  Effective period (Half-life period): < 30 min

## CCCCOC(=O)C1=C(COC(N)=O)NC(C)=C(C(=O)OC)C1c1cccc(Cl)c1Cl (stereo not shown) [Compound D, 2-Carbamoyloxymethyl-4-(2,3-dichlorophenyl)-6-methyl-1,4-dihydropyridine-3,5-dicarboxylic acid 3-butyl ester 5-methyl ester]
[1]; 0.01 mg/kg iv
  Change in blood pressure: -14%
  Change in femoral artery blood flow: +13%
  Change in vertebral artery blood flow: +80%
  Effective period (Half-life period): 44 min

## COC(=O)C1=C(C)NC(COC(N)=O)=C(C(=O)OC(C)C)C1c1cccc(Cl)c1Cl (stereo not shown) [NB-818, 2-Carbamoyloxymethyl-4-(2,3-dichlorophenyl)-6-methyl-1,4-dihydropyridine-3,5-dicarboxylic acid 3-isopropyl ester 5-methyl ester]
[8]; control 9.0 ± 1.5
  Latent reaction time, acquisition test: 8.3 ± 1.2 s
[8]; control 30.6 ± 3.0, * P < 0.05 vs control
  Latent reaction time, 2 hours later: 88.5 ± 17.9 s
[8]; control 42.5 ± 9.0, * P < 0.05 vs control
  Latent reaction time, 24 hours later: 111.8 ± 21.5 s
[4]
  Mortality, 0-8 hours: 38.5%
  Mortality, 0-24 hours: 76.9%
[1]; 0.01 mg/kg iv
  Change in blood pressure: -14%
  Change in femoral artery blood flow: +12%
  Change in vertebral artery blood flow: +109%
  Effective period (Half-life period): 57 min
[1]; 0.1 mg/kg id (intraduodenal)
  Change in blood pressure: -18%
  Change in femoral artery blood flow: +36%
  Change in vertebral artery blood flow: +135%
  Effective period (Half-life period): > 300 min
[1]; at dose level selectively increasing vertebral artery blood flow
  influence over the blood pressure and the heart rate: minimum
[5]
  Blood flow change, cerebellum blood flow: +85%
  Blood flow change, cerebral blood flow: +82%
  Blood flow change, femoral muscle blood flow: +3%
  Effective period (Half-life period): 44.6 min
[7]
  Change in blood pressure: -20%
  Change in cerebral cortex blood flow: +28%
  Change in heart rate: +16%
  Effective period (Half-life period): > 60 min
[6]
  Latent reaction time, acquisition test: 11.4 ± 1.3 s
  Latent reaction time, 2 hours later: 128.8 ± 21.8 s
  Latent reaction time, 24 hours later: 189.6 ± 24.6 s
[9]
  LD50: ≥ 3000 mg/kg
